Experimental data: article PMC9218946, “Identification of a Subtype-Selective Allosteric Inhibitor of GluN1/GluN3 NMDA Receptors” (Frontiers in Pharmacology, 2022)

Assays:
[1] = biological target: T1, native GluN1/GluN3 receptors (Rattus norvegicus, UniProt P35439+Q9R1M7); assay: Whole-cell patch-clamp, glycine-induced currents after CGP-78608 in acutely isolated hippocampal neurons; type: cell-based; conditions: 10 μM WZB117; glycine-induced currents after incubation with CGP-78608
T1 construct: endogenous in cells; host or cells: acutely isolated hippocampal neurons, Sprague-Dawley rats P7-14
T1 sequence (Q9R1M7 24-1135, other chains not shown): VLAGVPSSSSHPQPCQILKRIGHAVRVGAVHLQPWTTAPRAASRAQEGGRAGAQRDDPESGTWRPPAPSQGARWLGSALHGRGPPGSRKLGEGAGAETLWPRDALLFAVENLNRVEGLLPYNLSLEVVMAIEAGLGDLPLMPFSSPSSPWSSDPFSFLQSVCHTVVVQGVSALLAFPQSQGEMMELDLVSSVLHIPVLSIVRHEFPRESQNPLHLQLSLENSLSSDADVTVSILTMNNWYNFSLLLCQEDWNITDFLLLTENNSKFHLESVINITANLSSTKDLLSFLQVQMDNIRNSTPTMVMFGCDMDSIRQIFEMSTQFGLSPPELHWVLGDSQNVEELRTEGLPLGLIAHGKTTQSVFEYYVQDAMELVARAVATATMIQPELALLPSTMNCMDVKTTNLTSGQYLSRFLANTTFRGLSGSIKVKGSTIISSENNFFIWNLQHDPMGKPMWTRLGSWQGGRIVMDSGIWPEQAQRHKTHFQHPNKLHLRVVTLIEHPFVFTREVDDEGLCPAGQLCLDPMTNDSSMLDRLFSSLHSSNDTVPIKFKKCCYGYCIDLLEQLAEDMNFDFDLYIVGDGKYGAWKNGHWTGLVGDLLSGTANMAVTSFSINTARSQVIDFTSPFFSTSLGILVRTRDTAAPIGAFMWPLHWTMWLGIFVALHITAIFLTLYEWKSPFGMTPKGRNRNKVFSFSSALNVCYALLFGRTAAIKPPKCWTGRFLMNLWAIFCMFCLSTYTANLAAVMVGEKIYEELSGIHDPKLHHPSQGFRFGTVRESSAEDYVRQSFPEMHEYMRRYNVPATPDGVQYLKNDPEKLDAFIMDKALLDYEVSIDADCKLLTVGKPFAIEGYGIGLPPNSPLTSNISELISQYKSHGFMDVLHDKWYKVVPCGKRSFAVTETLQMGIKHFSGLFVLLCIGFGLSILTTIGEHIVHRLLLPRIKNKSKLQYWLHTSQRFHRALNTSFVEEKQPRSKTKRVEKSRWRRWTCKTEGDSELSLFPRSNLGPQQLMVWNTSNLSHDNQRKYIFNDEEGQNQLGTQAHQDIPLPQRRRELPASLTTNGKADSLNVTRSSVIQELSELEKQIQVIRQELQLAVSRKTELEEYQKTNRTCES
Experimental: (§1) Hippocampal neurons were obtained from Sprague-Dawley rats (aged P7-14). Briefly, the isolated hippocampal tissues were cut into approximately […] slices along the sagittal plane and were digested with 3 mg/ml proteinase (Sigma-Aldrich) at 32°C for 8 min. Then 1 mg/ml bovine serum albumin (Sangon Biotech) and 1 mg/ml trypsin inhibitor (Sigma-Aldrich) were used to stop the digestion. A few slices of the hippocampus were gently blown into single cells with the dissecting solution, then transferred to a dish and left to rest for 20 min before experiments. The dishes were preprocessed. Essentially, the bottom of the dish was covered with discarded cell suspension the day before the experiment and was washed and dried the next day, which prevented the neurons from sticking to the bottom too tightly. The dissecting solution contained (in mM): 82 Na2SO4, 30 K2SO4, 5 MgCl2, 1 Na pyruvate, 10 HEPES, and 20 glucose. The pH was adjusted to 7.2 using NaOH ([Xie et al., 2020]).
(§2) Whole-cell patch-clamp recordings were performed at room temperature (22–25°C) using an EPC-10 amplifier and Patch Master Software (HEKA). Pipettes were pulled from borosilicate glass capillaries (World Precision Instruments), and the resistances were 3–5 MΩ when filled with the intracellular solution. […]

GluN1/GluN3A receptors = GluN1/GluN3A receptors (UniProt Q05586+Q9R1M7); assay: Whole-cell patch-clamp recording on GluN1/GluN3A Flp-in T-REx 293 stable cell lines; type: cell-based, human GluN1-1a, rat GluN3A; set-up: expressed in transfected cells
GluN1/GluN3A receptors, sequence (Q9R1M7 24-1135, other chains not shown): as above

GluN2-containing NMDARs = assay: Whole-cell patch-clamp, NMDA-induced native currents in acutely isolated hippocampal neurons; type: cell-based, rat; conditions: 10 μM WZB117
Experimental: as §1, §2

KA receptors = assay: Whole-cell patch-clamp, KA-induced currents in acutely isolated hippocampal neurons; type: cell-based, rat; conditions: 10 μM WZB117
Experimental: as §1, §2

I drug/I control [1]: 0.18 ± 0.03
voltage-dependence of inhibition activity (GluN1/GluN3A receptors; 3 μM WZB117, +40 mV and −60 mV): no significant change
IC50 (GluN1/GluN3A receptors; pH 6.9): 1270 ± 390 nM
IC50 (GluN1/GluN3A receptors; pH 8.3): 1090 ± 220 nM
Structure (SMILES): O=C(Oc1cccc(F)c1OC(=O)c1cccc(O)c1)c1cccc(O)c1 [WZB117, 3-fluoro-1,2-phenylene bis(3-hydroxybenzoate)]
I drug/I control (GluN2-containing NMDARs): 0.73 ± 0.01
effect on KA-induced currents (KA receptors): little effect
